Laboratory results taken from paper PMC549046 (Comparative Hepatology, 2005).
“And” between values parts separate entries of the source, which are not always exact repeats. Equal values may be shown once. “Also recorded” adds a separate entry of the source. Read-outs that look alike come from different tables or passages of the source. Marks after values point to notes of the source that are not given here.

Assays:
[1] = test system: testosterone; assay: Plasma testosterone analysis (EIA); type: in vivo, Atlantic cod (Gadus morhua); details: i.p., 5 days
Description: (§1) Hatchery reared juvenile Atlantic cod of both sexes with an average body weight (b.w.) around 400 g were supplied by Sekkingstad, Preserving AS, Hordaland, Norway. The fish were kept in 0.5 m^3 indoor glass fibre tanks, at Industrial Laboratory (ILAB), Bergen High Technology Centre (Bergen, Norway), provided with continuously flowing seawater at a temperature of 8 ± 0.5°C and a salinity of 3.4%. Throughout the experimental period, the fish were subjected to continuous 24 h artificial light (the regime the farm used for optimal fish growth). The fish were acclimated to these conditions for five days prior to the experimental period. […] Control fish were injected with 5 ml peanut oil/kg b.w. (vehicle). There were eight to nine fish in each treatment group. When designing the experiment, we could only test one combination due to limited fish numbers.
After five days exposure, the fish were sacrificed by a sharp blow to the head. Blood samples were collected from the dorsal vein using a heparinized syringe and the liver was quickly dissected out and placed in ice-cold homogenization buffer (0.1 M sodium phosphate buffer pH 7.4, containing 0.15 M KCl, 1 mM EDTA and 1 mM DTT). […] Total microsomal protein content was measured according to a published method by Bradford, using bovine serum albumin as standard, and a SpectraFluor spectrophotometer from Tecan (Grödig/Salzburg, Austria). […]

[2] = molecular target: T1, Hepatic Microsomal CYP1A activity (Gadus morhua, UniProt A0ACE1MZ74); assay: In vitro inhibition of CYP1A-mediated EROD activity in pooled liver microsomes; details: for Type of inhibition of CYP1A (EROD) activity: cod liver microsomes, Dixon plots
T1 sequence (A0ACE1MZ74 1-519): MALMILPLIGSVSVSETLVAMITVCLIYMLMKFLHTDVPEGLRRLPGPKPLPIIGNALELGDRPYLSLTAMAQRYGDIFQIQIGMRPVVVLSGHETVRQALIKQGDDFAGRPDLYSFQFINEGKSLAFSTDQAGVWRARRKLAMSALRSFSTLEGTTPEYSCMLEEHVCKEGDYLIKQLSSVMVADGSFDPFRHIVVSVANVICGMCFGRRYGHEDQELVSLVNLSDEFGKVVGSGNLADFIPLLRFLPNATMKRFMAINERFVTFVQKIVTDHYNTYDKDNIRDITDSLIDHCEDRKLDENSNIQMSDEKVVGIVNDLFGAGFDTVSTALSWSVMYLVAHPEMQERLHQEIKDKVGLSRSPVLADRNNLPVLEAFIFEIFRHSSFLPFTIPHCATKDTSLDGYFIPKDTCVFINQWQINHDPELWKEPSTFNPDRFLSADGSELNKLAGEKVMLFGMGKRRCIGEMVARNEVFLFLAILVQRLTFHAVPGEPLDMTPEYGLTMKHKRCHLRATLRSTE
Description: (§2) For in vitro inhibition studies, feral Atlantic cod of both sexes were caught off the West coast of Sweden and placed in concrete basins provided with recirculating aerated seawater at 10 ± 2°C and a salinity of 3.0% and alternative light/dark photoperiods of 12 hours. Prior to sampling, the animals were starved and acclimated to these conditions for three weeks. Eight fish were injected i.p. with β-naphthoflavone (BNF), 50 mg/kg b.w. dissolved in peanut oil (5.0 mg/ml). The fish were placed in a 100 l glass aquarium provided with aerated seawater (above) and 30% of the water volume was replaced each day. To eliminate visual stress, the sides of the aquaria were covered with black plastic sheets. After 3 days exposure, the fish were sacrificed. Livers were quickly dissected out and placed in ice-cold homogenization buffer. Livers were pooled from twenty untreated Atlantic cod and from eight BNF treated Atlantic cod, respectively. Microsomal fractions were isolated (above) and stored in aliquots at -80°C. Ethical approval from the Ethical committee of Göteborg license number (99–2003).
(§3) The CYP1A activity was determined as EROD activity, using resorufin as standard in a SpectraFluor plate reader according to the protocol provided by Nilsen et al.. The CYP3A catalytic activity was measured as BFCOD activity, using HFC as standard. The BFC assay was performed based on a published protocol by Miller et al. and optimized for rainbow trout liver microsomes (T. Hegelund and M. Celander, unpublished data). The reaction mixture consisted of 200 μM BFC, bovine serum albumin (1.6 mg/ml), 2 μM NADPH and 10 μl liver microsomes in a total volume of 200 μl in 0.2 M potassium phosphate buffer pH 7.4 in a 96-multiwell plate using a VICTOR™ 1420 Multilabel Counter from Wallac Sverige AB (Upplands Väsby, Sweden).
(§4) In vitro inhibition studies were carried out in 96-multiwell plates using a VICTOR™ 1420 Multilabel Counter. […] The substances were dissolved in DMSO and diluted with ethanol. The final concentrations never exceeded 0.01% (v/v) DMSO and 0.001% ethanol (v/v). For CYP1A and CYP3A inhibition studies, pooled liver microsomes from BNF-treated and from untreated Atlantic cod, respectively, were used.

[3] = molecular target: T2, CYP1A (Gadus morhua, UniProt A0ACE1MZ74); assay: as above; details: both, Atlantic cod (Gadus morhua); for Ki: hepatic microsomal CYP1A (EROD) activity
T2 sequence (A0ACE1MZ74 1-519): T1 sequence (A0ACE1MZ74 1-519)
Description: as §2, §3, §4

[4] = test system: vitellogenin; assay: Plasma vitellogenin analysis (ELISA); type: in vivo, Atlantic cod (Gadus morhua); details: i.p., 5 days; for Effect on plasma vitellogenin: in words; for Vitellogenin plasma level: mean (SD), n = 7–8
Description: (§5) Ethical approval licence number of ILAB Bergen: 119. Experiment no. 0204.
Plasma levels of vitellogenin protein were determined using a non-competitive sandwich ELISA kit and employing rabbit PAb against Atlantic cod vitellogenin from Biosense Laboratories AS (Bergen, Norway). Each plasma sample was diluted (1:20, 1:15,000 and 1:50,000) and 100 μl was analyzed and compared to purified Atlantic cod vitellogenin protein standards (ranging between 0.12 and 2,000 ng/ml). The signal was detected at A492 after 15 min incubation with substrate solution, using a VICTOR™ 1420 Multilabel Counter.

[5] = test system: CYP3A; assay: CYP3A 2D gel electrophoresis immunoblot of pooled liver microsomes from treated fish
Description: as §1
After five days exposure, the fish were sacrificed by a sharp blow to the head. Blood samples were collected from the dorsal vein using a heparinized syringe and the liver was quickly dissected out and placed in ice-cold homogenization buffer (0.1 M sodium phosphate buffer pH 7.4, containing 0.15 M KCl, 1 mM EDTA and 1 mM DTT). Liver microsomes were prepared according to the published protocol by Goksøyr, and stored at -80°C. Total microsomal protein content was measured according to a published method by Bradford, using bovine serum albumin as standard, and a SpectraFluor spectrophotometer from Tecan (Grödig/Salzburg, Austria). Blood plasma was isolated by centrifugation at 5,000 g for 10 min at room temperature and stored at -80°C. Ethical approval licence number of ILAB Bergen: 119. Experiment no. 0204.

[6] = test system: Hepatic Microsomal CYP3A activity; assay: In vitro inhibition of CYP3A-mediated BFCOD activity in pooled liver microsomes; details: for Type of inhibition of CYP3A (BFCOD) activity: cod liver microsomes, Dixon plots
Description: as §2, §3, §4

[7] = test system: CYP3A; assay: in vitro; details: both, Atlantic cod (Gadus morhua)
Description: as §2, §3, §4

[8] = test system: 11-keto-testosterone; assay: Plasma 11-keto-testosterone analysis (EIA); type: in vivo, Atlantic cod (Gadus morhua); details: i.p., 5 days; for Effect on 11-keto-testosterone plasma levels: compared to vehicle or single compounds, in words; for 11-Keto-Testosterone plasma level: mean (SD), n = 6–8
Description: as §5
(§6) Plasma levels of 17β-estradiol and testosterone were determined using competitive EIA kits from Cayman Chemical (Ann Arbor, MI, USA). Plasma levels of 11-keto-testosterone were analyzed using a competitive EIA kit, from Biosense Laboratories AS (Bergen, Norway). Plasma from each fish was concentrated (2:1) by extraction once with six volumes diethyl ether and 50 μl was analyzed and compared to purified standard substances. The signals were detected at A405 after 40 min (17β-estradiol), 60 min (testosterone) or 80 min (11-keto-testosterone) incubation with substrate solution, using a VICTOR™ 1420 Multilabel Counter.

[9] = test system: 17β-estradiol; assay: Plasma 17β-estradiol analysis (EIA); type: in vivo, Atlantic cod (Gadus morhua); details: i.p., 5 days; for Effect on 17β-estradiol plasma levels: compared to vehicle or single compounds, in words; for 17β-Estradiol plasma level: mean (SD), n = 8
Description: as §5, §6

[10] = test system: CYP3A; assay: In vitro pre-incubation of liver microsomes followed by CYP3A western blot; details: pooled cod liver microsomes pre-incubated 10, 30, 60 min
Description: The CYP3A western blot analysis was performed as described above.

[11] = test system: hepatic BFCOD activities; details: ref [13],[22]; read-out: IC50, hepatic BFCOD activity in killifish; cited from earlier work
[12] = test system: hepatic BFCOD activities; details: ref [13],[22]; read-out: IC50, hepatic BFCOD activity in rainbow trout; cited from earlier work
[13] = test system: Hepatic Microsomal CYP3A activity; parameters: method as in PMID 15084407; details: pooled cod liver microsomes; substrate BFC; published earlier, ref [22]; read-out: IC50, hepatic microsomal CYP3A (BFCOD) activity; cited from earlier work
[14] = test system: CYP3A; assay: In vivo hepatic CYP3A protein expression (western blot); details: i.p., 5 days, KC 12, NP 25, KC+NP 12+25 mg/kg
Description: as §1, with “There were eight to nine fish in each treatment group. When designing the experiment, we could only test one combination due to limited fish numbers.” left out
(§7) After five days exposure, the fish were sacrificed by a sharp blow to the head. […] Total microsomal protein content was measured according to a published method by Bradford, using bovine serum albumin as standard, and a SpectraFluor spectrophotometer from Tecan (Grödig/Salzburg, Austria). […]
(§8) Western blot analyses of 40 μg hepatic microsomal protein were carried out using enhanced chemoluminescence (ECL), based on the protocol previously described and PAb raised against rainbow trout CYP1A and CYP3A [41, 55, 56]. The intensity of each protein band was determined by densitometry on scanned fluorograms using Labview 7.0 from National Instruments (Austin, TX, USA).

[15] = molecular target: T3, cDNA Expressed Human CYP3A4 (Homo sapiens, UniProt P08684); assay: Inhibition of BFCOD activity in cDNA expressed human CYP3A4 baculovirus supersomes; type: biochemical; details: substrate BFC
T3 construct: purchased BD Biosciences Company, Gentest (Woburn, MA, USA); host or cells: baculovirus expression system (supersomes)

[16] = test system: CYP1A; assay: In vivo hepatic CYP1A enzyme (EROD) activity after i.p. exposure; details: 5 days, NP 25 mg/kg, ethynylestradiol 5 mg/kg
Description: as §1, §7
The CYP1A activity was determined as EROD activity, using resorufin as standard in a SpectraFluor plate reader according to the protocol provided by Nilsen et al.. The CYP3A catalytic activity was measured as BFCOD activity, using HFC as standard. […]

[17] = test system: CYP1A; assay: In vivo hepatic CYP1A protein expression (western blot); details: i.p., 5 days, NP 25 mg/kg, ethynylestradiol 5 mg/kg
Description: as §1, with “There were eight to nine fish in each treatment group. When designing the experiment, we could only test one combination due to limited fish numbers.” left out
as §7, §8

[18] = no [S] level stated, Dixon plot
[19] = 2D gel immunoblot, pooled liver microsomes of 8–9 treated fish

T3 sequence (P08684 whole entry): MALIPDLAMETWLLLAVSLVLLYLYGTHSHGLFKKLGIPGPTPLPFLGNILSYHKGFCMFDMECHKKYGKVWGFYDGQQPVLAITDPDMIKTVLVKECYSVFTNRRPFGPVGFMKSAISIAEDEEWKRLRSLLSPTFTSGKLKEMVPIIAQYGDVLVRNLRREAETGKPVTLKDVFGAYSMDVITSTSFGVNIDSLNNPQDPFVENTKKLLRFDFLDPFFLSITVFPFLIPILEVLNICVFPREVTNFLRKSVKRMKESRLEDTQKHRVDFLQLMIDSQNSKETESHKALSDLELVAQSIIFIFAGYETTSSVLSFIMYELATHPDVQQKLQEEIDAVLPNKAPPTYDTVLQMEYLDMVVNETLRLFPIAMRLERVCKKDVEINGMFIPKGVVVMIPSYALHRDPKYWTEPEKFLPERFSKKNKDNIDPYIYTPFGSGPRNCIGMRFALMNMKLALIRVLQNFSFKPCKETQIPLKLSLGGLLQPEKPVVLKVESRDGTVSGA

Row | Structure (SMILES) | Type of inhibition of CYP1A (EROD) activity [2] | IC50 [3] [µM] | Ki [3, 18] [µM] | Effect on plasma vitellogenin [4] | Vitellogenin plasma level [4] | Type of inhibition of CYP3A (BFCOD) activity [6] | IC50 ([7]; microsomes, pH 7.4) [µM] | Effect on 11-keto-testosterone plasma levels [8] | 11-Keto-Testosterone plasma level [8] | Effect on 17β-estradiol plasma levels [9] | 17β-Estradiol plasma level [9] | Induction of the more basic CYP3A-immunoreactive isoform (pI around 5.1) [5, 19] | Effect on CYP3A protein expression [14] | also measured
1 | C#C[C@]1(O)CC[C@H]2[C@@H]3CCc4cc(O)ccc4[C@H]3CC[C@@]21C [ethynylestradiol, 17α-ethynylestradiol] | non-competitive inhibitor | 20 | 5.4 to 10.3 | induction | 4,350 (1,463) ^a μg/ml plasma | uncompetitive inhibitor | 40 | no statistically significant effect | 35 (23) pg/ml plasma | no statistically significant effect | 100 (69) pg/ml plasma | – | – | Effect on testosterone plasma levels ([1]; compared to vehicle or single compounds, in words): no statistically significant effect; Testosterone plasma level ([1]; mean (SD), n = 7–8): 90 (40) pg/ml plasma; Ki ([3]; high [S], high [S] 7-ethoxyresorufin, one representative Dixon plot): 10.3 µM; Ki ([3]; low [S], low [S] 7-ethoxyresorufin, one representative Dixon plot): 5.4 µM; Induction of the more basic CYP3A-immunoreactive isoform (pI around 5.1) ([5]; in vivo): did not induce; Ki ([7]; pooled liver microsomes from untreated Atlantic cod, pH 7.4, probe BFC): 54 to 95 µM; Ki ([7]; pooled liver microsomes from untreated Atlantic cod, pH 7.4, probe BFC (high [S])): 95 µM; Ki ([7]; pooled liver microsomes from untreated Atlantic cod, pH 7.4, probe BFC (low [S])): 54 µM
2 | CC(=O)N1CCN(c2ccc(OCC3COC(Cn4ccnc4)(c4ccc(Cl)cc4Cl)O3)cc2)CC1 (stereo not shown) [ketoconazole] | – | – | – | – | 0.6 (0.9) μg/ml plasma | non-competitive inhibitor | – | – | 71 (46) pg/ml plasma | – | 60 (26) pg/ml plasma | inducible; also recorded: induced | no effect | Effect of pre-incubation on hepatic microsomal CYP3A protein levels [10]: no effects; IC50 [11]: 0.01 µM; IC50 [12]: 0.1 µM; Ki, hepatic microsomal CYP3A (BFCOD) activity [6, 18]: sub-μM range; Ki ([7]; microsomes, pH 7.4): […]; IC50 [13]: 0.3 µM
3 | CCCCCCCCCc1ccc(O)cc1 [nonylphenol, 4-nonylphenol] | non-competitively inhibited | 5.2 | ~3.5 | induction | 266 (199) ^a μg/ml plasma | – | 160 | no statistically significant effect | 42 (67) pg/ml plasma | no statistically significant effect | 76 (52) pg/ml plasma | did not induce | no effect | Type of inhibition of CYP1A (EROD) activity ([2]; listed as Nonylphenol): non-competitive inhibitor; Ki ([2]; read-out: Ki, hepatic microsomal CYP1A (EROD) activity, no [S] level stated, Dixon plot, listed as Nonylphenol (NP)): 3.5 µM; IC50 [15]: 35 µM; Decrease in CYP1A (EROD) activity compared to fish exposed to ketoconazole + nonylphenol [16]: 65%; Reduction of CYP1A (EROD) activity compared to vehicle treated fish [16]: 41% and 40%; Effect on CYP1A protein expression [17]: no effect
